“Also recorded” adds a separate entry of the source. Read-outs that look alike come from different tables or passages of the source. Blank lines part the entries; values can stand above or below the compound they belong to.
Tests used:
glucocorticoid receptor = conditions: prior screen, cited from earlier work
AID = target: T1, AID (Homo sapiens, UniProt Q9GZX7); assay: AID-EGFP-HeLa HCS assay LOPAC screen for inhibitors of AID nuclear import; format: cell-based
T1 construct: expressed in transfected cells; host or cells: HeLa S3 (lentiviral transduction, pLVTHM, EF1-alpha promoter)
Protocol: The LOPAC screen was performed using 20 μM of each compound in duplicate with a 3-hour incubation followed by LMB treatment.
Maximum values, set to 100% corresponds to conditions of DMSO treated cells. Minimum values, set approximately to 0%, corresponds to conditions of only 200 ng/mL LMB treatment.

AID-EGFP [1] = assay: LMB response in HeLa cell line stably expressing AID-EGFP and mCherry-TALDO1: AID; format: cell-based, human; conditions: LMB treatment; stable HeLa AID-EGFP/mCherry-TALDO1
Source text: (§1) A HeLa cell line stably expressing equivalent levels of AID-EGFP and mCherry-TALDO1 was established by transducing cells with a lentiviral vector encoding AID-EGFP. mCherry-TALDO1 was transfected/selected after the AID-EGFP line was sorted and selected. The cell line was then sorted for the co-expression of both proteins.
(§2) FIG. 23 depicts the expression of AID-EGFP and mCherry-TALDO1, as measured by flow cytometry (FIG. 23A) and western blot (FIG. 23B). […] FIG. 24 depicts the localization of AID-EGFP and mCherry-TALDO1 in control treated cells and LMB treated cells. […] This cell line is then used in a simultaneous primary/counter screen for compounds that selectively alter AID import, while not affecting TALDO1 localization.

mCherry-TALDO1 = assay: LMB response in HeLa cell line stably expressing AID-EGFP and mCherry-TALDO1: TALDO1; format: cell-based, human; conditions: LMB treatment; stable HeLa AID-EGFP/mCherry-TALDO1
Source text: as §1, §2

AID-EGFP [2] = assay: LMB / Ratjadone A response of AID-EGFP in stable HeLa AID-EGFP cells; format: cell-based, human; conditions: for AID-EGFP localization / nuclear retention: 100 ng/ml for 180 min
Source text: HCS assay development involves the selection of the most appropriate cellular model (Dudgeon et al., 2010, J. Biomol. Screen, 15: 766-782; Nickischer et al., 2006, Methods Enzymol, 414: 389-418; Williams et al., 2006, Methods Enzymol, 414: 364-89). In this regard, AID shuttling is not specific to B cells, making it possible to use a variety of cell types to study AID structure and function (Okazaki et al., 2002, Nature, 416: 340-5; Yoshikawa et al., 2002 Science, 296: 2033-6). However, the ability of LMB to induce quantitative AID nuclear retention was more uniform in HeLa cells (a finding has been independently confirmed by comparing the AID responses to LMB in transiently transfected HeLa, HEK293T, U2OS, A549, CaCo2, HepG2 and CHO cells). […] Consequently, AID-EGFP was subcloned from a pIRES vector into the lentiviral vector pLVTHM (Addgene) using the EF1-α promoter to drive moderate to low level expression. pLV-AID-EGFP psuedotyped virus was transduced into HeLa S3 cells (ATCC) that were live-cell flow sorted to obtain a homogenous population of fluorescent cells. Subcloning of a cell line was not thought to be necessary given the ability to threshold fluorescence in individual cells during high content screening. These cells have been maintained in culture with little or no loss of fluorescence for 2 months. HeLa AID-EGFP cells plated into 384-well plates at varying cell densities (1,250 to 10,000 cells per well) were simultaneously fixed with formaldehyde and counter stained with Hoechst and then imaged using both the IXU Ultra and ArrayScan VTI platforms with 10× and 20× objectives. Image quantification was performed with the multi-wavelength cell scoring (MWCS) & translocation enhanced (TE) image analysis modules and the molecular translocation (MT) image algorithm for the IXU Ultra and ArrayScan VTI, respectively. Based on image acquisition, 2,500 cells per well was determined ideal for either platform regardless of the objective. […] To establish the LMB response within the context of an HCS system and assess the assay parameters, cells were treated in 384-well format with varying doses (0.2 to 200 ng/ml) of either LMB or Ratjadone A (chemically related to LMB) for varying durations up to 200 min. […] There was a 4.5-fold difference between the nuclear to cytoplasmic (N/C) fluorescence ratio of LMB-treated cells and cells only treated with the solvent for LMB (0.5% methanol).
For the LOPAC high content screen (HCS), 2,500 AID-EGFP-HeLa cells were cultured per well on a 384-well plate. Cells were seeded and cultured overnight. Cells were exposed to 20 μM of test compound for 3 hours, followed by a 200 ng/mL LMB treatment for 3 hours. Experiments were run in duplicate. […]

CRM1 = CRM1 (Homo sapiens, UniProt O14980); conditions: cited from earlier work
ACF = assay: LMB response in HEK293T cells transiently cotransfected with ACF-EGFP and mCherry-hnRNPA1: ACF; format: cell-based, human; conditions: LMB treatment; transiently transfected HEK293T
Source text: (§3) Wild type human ACF, hnRNP A1, and TALDO1 cDNAs are obtained from BlueHeron (NM_014576.2, NM_002136.2 and NM_006755.1) cDNAs for ACF and A1 were subcloned into pGEM3 and pIRES, respectively. Criteria used for transient transfection, validating protein expression and determining appropriate N/C ratio baselines are described elsewhere herein. Two counter screens for shuttling proteins, run in parallel enable the identification of AID-selective nuclear import inhibitors.
(§4) Data presented herein show images from HEK293T cells 24 hr after being transiently cotransfected with ACF-EGFP and mCherry-hnRNPA1. FIG. 5G through FIG. 5I show images from a 384-well plate for EGFP-ACF, mCherry-hnRNPA1 and two color composite respectively. […] ACF and hnRNP A1 are selected because they shuttle using different mechanism than AID and because their function in the cell differs markedly from one another and from AID and H1. ACF binds to RNA through RNP domains that comprise three separate and centrally located RNA Recognition Motifs (RRM), required for ACF's function as an editing site recognition cofactor for APOBEC1 mRNA editing activity in the cell nucleus (Hintersteiner et al., 2010, ACS Chem Biol, 5(10): 967-79). […] ACF nuclear import is determined by a unique amino acid motif centrally located and a Cterminal, CRM1-dependent nuclear export signal (Chahine et al., 2009, Pharmacol Rev, 61(3): 358-72).

AID-EGFP [3] = assay: LMB response in 293T cells transiently co-transfected with AID-EGFP and mCherry-TALDO1: AID; format: cell-based, human; conditions: LMB treatment; 293T co-transfected with mCherry-TALDO1
Protocol: (§5) TALDO1 in pIRES was transiently co-transfected with AID-EGFP in 293T cells and fluorescence images taken 24 hours post-transfection. AID-EGFP was predominantly cytoplasmic while mCherry-TALDO1 was predominantly nuclear (FIG. 5P through FIG. 5R). […] It is concluded that co-expression of AID and TALDO1 is achievable and that the proteins have different N/C ratios even though they use the same importins.

AID-EGFP [4] = assay: LMB response in HEK293T cells transiently co-transfected with AID-EGFP and mCherry-H1: AID; format: cell-based, human
Protocol: (§6) HEK293T cells in 40 μl were plated robotically into 384-well plates using a Multi-Drop (ThermoScientific) such that in 24 hours the cell density is approximately 60% confluency. EGFP-AID and mCherry-H1 plasmids were mixed at a 1:1 molar ratio in Turbofect reagent as per the manufacture's protocol (Fermentas) and dispensed from a trough into the 384-well HEK293T cell cultures with a Perkin Elmer Janus robot liquid handling system. Each well received 25 ng of total plasmid DNA and uniform dispersal of the transfection mixture was ensured by placing the plates on the Perkin Elmer plate mixer at the highest speed setting for 30 sec. Due to the small culture volume, there was no effect on cell attachment to the plates but was critical for uniform transfection. Ranges of both EGFP-AID: mCherry-H1 plasmid ratios and amount of total plasmid DNA required for transfection of cells in 384-well format were evaluated. For current plasmid stocks, a 1:1 plasmid ratio gave the most consistent expression of both proteins.
(§7) Co-expression of other counter screen proteins and their response to LMB was evaluated using co-transfected HEK293T cells. […]

histone H1 = assay: LMB response in HEK293T cells transiently co-transfected with AID-EGFP and mCherry-H1: H1; format: cell-based, human; conditions: LMB treatment
Protocol: as §6, §7

TALDO1 = assay: LMB response in 293T cells transiently co-transfected with AID-EGFP and mCherry-TALDO1: TALDO1; format: cell-based, human; conditions: LMB treatment; 293T co-transfected with AID-EGFP
Protocol: as §5

hnRNP A1 = assay: LMB response in HEK293T cells transiently cotransfected with ACF-EGFP and mCherry-hnRNPA1: hnRNP A1; format: cell-based, human; conditions: LMB treatment; transiently transfected HEK293T
Source text: as §3, §4

[5] = 20 μM compound for 3 hours, then 200 ng/mL LMB for 3 hours, AID-EGFP-HeLa cells, 2,500 cells/well, duplicate

T1 sequence (Q9GZX7 whole entry): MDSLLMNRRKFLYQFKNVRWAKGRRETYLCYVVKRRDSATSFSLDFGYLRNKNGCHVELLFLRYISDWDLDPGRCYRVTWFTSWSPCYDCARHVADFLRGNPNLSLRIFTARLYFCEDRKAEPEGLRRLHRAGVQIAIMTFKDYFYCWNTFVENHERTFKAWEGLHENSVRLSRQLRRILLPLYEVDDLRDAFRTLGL
CRM1, sequence (O14980 whole entry): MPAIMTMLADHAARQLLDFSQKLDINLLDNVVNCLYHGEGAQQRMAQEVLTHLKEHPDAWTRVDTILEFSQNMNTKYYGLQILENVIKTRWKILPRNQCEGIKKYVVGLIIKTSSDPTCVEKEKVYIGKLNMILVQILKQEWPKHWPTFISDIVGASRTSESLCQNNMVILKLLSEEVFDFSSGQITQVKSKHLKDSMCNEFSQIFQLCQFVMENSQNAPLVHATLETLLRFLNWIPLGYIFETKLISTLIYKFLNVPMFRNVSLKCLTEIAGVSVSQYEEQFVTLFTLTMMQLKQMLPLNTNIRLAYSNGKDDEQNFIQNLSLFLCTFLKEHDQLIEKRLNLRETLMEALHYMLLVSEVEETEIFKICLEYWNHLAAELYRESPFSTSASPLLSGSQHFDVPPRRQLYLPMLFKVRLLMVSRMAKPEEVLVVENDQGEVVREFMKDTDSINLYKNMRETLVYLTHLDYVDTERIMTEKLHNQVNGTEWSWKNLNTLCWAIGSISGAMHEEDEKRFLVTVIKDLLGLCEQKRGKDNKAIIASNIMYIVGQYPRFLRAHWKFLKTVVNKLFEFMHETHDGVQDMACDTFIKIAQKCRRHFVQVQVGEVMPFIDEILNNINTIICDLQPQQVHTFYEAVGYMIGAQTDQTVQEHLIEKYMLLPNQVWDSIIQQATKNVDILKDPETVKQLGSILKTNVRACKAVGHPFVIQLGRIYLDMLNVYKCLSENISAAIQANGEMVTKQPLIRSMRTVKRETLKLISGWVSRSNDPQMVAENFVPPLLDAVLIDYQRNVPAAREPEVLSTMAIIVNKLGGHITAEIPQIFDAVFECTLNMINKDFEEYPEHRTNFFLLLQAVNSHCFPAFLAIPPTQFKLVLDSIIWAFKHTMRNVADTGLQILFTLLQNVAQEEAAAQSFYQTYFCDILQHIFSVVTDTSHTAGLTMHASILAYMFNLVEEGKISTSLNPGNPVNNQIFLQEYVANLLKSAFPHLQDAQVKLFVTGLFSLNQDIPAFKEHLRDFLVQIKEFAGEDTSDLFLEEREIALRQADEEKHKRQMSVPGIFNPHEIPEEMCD

inhibition of AID nuclear import (AID; [5]): greater than 50%
Compound: CC(C)(C)c1ccc(S(=O)(=O)/C=C/C#N)cc1 [Bay 11-7085]
nuclear import of the glucocorticoid receptor (glucocorticoid receptor): inhibit the nuclear import of the glucocorticoid receptor
nuclear import of the glucocorticoid receptor (glucocorticoid receptor; listed as SID 53777289): inhibited nuclear import of the glucocorticoid receptor

Compound: CCC(=C/[C@H](C)C/C=C/C(C)=C/[C@@H](C)C(=O)[C@@H](C)[C@H](O)[C@@H](C)C/C(C)=C/C(=O)O)/C=C/[C@@H]1OC(=O)C=C[C@@H]1C [LMB, Leptomycin B]
AID-EGFP localization (AID-EGFP [1]): shift localization from primarily cytoplasmic to primarily nuclear
mCherry-TALDO1 localization (mCherry-TALDO1): remained nuclear
AID-EGFP localization / nuclear retention (AID-EGFP [2]; HeLa AID-EGFP cells): maximal nuclear retention of AID-EGFP; also recorded: nuclear AID-EGFP localization
nuclear localization of AID-EGFP (AID-EGFP [2]; 200 ng/mL LMB for 3 hours, control AID-EGFP-HeLa cells without test compound): approximately 80%
difference in nuclear to cytoplasmic (N/C) fluorescence ratio versus solvent (0.5% methanol) treated cells (AID-EGFP [2]; HeLa AID-EGFP cells, 384-well): 4.5 fold
CRM1-mediated nuclear export of AID (CRM1): inhibited
ACF localization (ACF): nuclear retention of ACF; also recorded: redistribution of ACF-EGFP
AID-EGFP nuclear retention (AID-EGFP [3]): significant nuclear retention of AID-EGFP; also recorded: selective redistribution of AID-EGFP
AID-EGFP nuclear retention (AID-EGFP [4]; 50 ng/ml LMB for 90 min, transiently transfected HEK293T): increased retention in their nuclei; also recorded: selective redistribution of AID-EGFP
effect of increasing LMB above 50 ng/ml on EGFP-AID retained in the nucleus (AID-EGFP [4]; transient system, HEK293T): did not increase the amount of EGFP-AID retained in the nucleus
histone H1 localization (histone H1): remained nuclear; also recorded: do not affect H1 nuclear localization
nuclear mCherry fluorescence due to TALDO1 (TALDO1): did not noticeably affect
hnRNP A1 localization (hnRNP A1): does not respond

inhibition at 20 µM (AID; [5]): > 50%
Compound: CN(C)S(=O)(=O)c1ccc2c(c1)/C(=C/c1cc3c([nH]1)CCCC3)C(=O)N2 [SU 6656]

Compound: Ratjadone A
AID-EGFP localization / nuclear retention (AID-EGFP [2]; HeLa AID-EGFP cells): maximal nuclear retention of AID-EGFP; also recorded: nuclear AID-EGFP localization

Compound: Cl.Cl.O=C1c2c(O)ccc(O)c2C(=O)c2c(NCCNCCO)ccc(NCCNCCO)c21 [M6545]
fluorescence interference (false positive hit) (AID; LOPAC screen, 20 μM): false positive autofluorescent

Compound: O=C1c2c(O)ccc(O)c2C(=O)c2c(NCCNCCO)ccc(NCCNCCO)c21 [Mitoxantrone]
inhibition at 20 µM (AID; [5]): > 50%

Compound: Cc1c2ccncc2c(C)c2c1[nH]c1ccccc12 [Ellipticine]
inhibition at 20 µM (AID; [5]): > 50%

Source: patent US20150018380A1, “Methods of Screening for Activation Deaminase Inhibitors Through Nuclear Import Inhibitors” (University of Rochester, priority 2012, published 2015)
